Source: patent US20070167412A1, “HALOCOMBSTATINS AND METHODS OF SYNTHESIS THEREOF” (ARIZONA BOARD OF REGENTS, priority 2003, published 2007)
Converted amounts (≈) assume the structure as drawn.

How the values were obtained:
Enterobacter cloacae = assay: reference broth microdilution susceptibility assay; type: cell-based; details: Table III
Source text: (§1) The halocombstatins of the present invention appear to also have antimicrobial properties. More specifically, they appear to have antifungal and/or antibacterial properties. Antimicrobial evaluation of the halocombstatins involved susceptibility testing performed by the reference broth microdilution assay. The antimicrobial activities of the halocombstatins were very similar, targeting Gram-positive bacteria and the pathogenic fungi Cryptococcus neoformans, and results are shown in Table III.
(§2) (See Pettit, G. R., et al., Antineoplastic Agents 463. Synthesis of Combretastatin A-3 Diphosphates, Anticancer Drug Design 2000, 15, 397-404.) To determine the antimicrobial activity of the present compounds, susceptibility testing was performed by the reference broth microdilution assay. (See National Committee for Clinical Laboratory Standards. Methods for Dilution Antimicrobial Susceptibility Tests for Bacteria that Grow Aerobically. Approved Standard M7-A5. Wayne, P A: NCCLS, 2000. National Committee for Clinical Laboratory Standards. Reference Method for Broth Dilution Antifungal Susceptibility Testing of Yeasts. Aproved Standard M27-A. Wayne, P A: NCCLS, 1997.) The antimicrobial activities of the halocombretastatins of the present invention were very similar, targeting Gram-positive bacteria and Cryptococcus neoformans. This is illustrated in further detail in Table III. Thus, several of the novel compounds of the present invention appear to have potential as antimicrobial agents, such as antifingals and antibacterials.

Micrococcus luteus = assay: reference broth microdilution susceptibility assay; type: cell-based; details: Table III
Source text: as §1, §2

Staphylococcus aureus = assay: reference broth microdilution susceptibility assay; type: cell-based; details: Table III
Source text: as §1, §2

[1] = system: Stenotrophomonas maltophilia; assay: reference broth microdilution susceptibility assay; type: cell-based; details: Table III
Source text: as §1, §2

Candida albicans = assay: reference broth microdilution susceptibility assay; type: cell-based; details: Table III
Source text: as §1, §2

Cryptococcus neoformans = assay: reference broth microdilution susceptibility assay; type: cell-based; details: Table III
Source text: as §1, §2

Enterococcus faecalis = assay: reference broth microdilution susceptibility assay; type: cell-based; details: Table III
Source text: as §1, §2

Neisseria gonorrhoeae = assay: reference broth microdilution susceptibility assay; type: cell-based; details: Table III
Source text: as §1, §2

Escherichia coli = assay: reference broth microdilution susceptibility assay; type: cell-based; details: Table III
Source text: as §1, §2

Streptococcus pneumoniae = assay: reference broth microdilution susceptibility assay; type: cell-based; details: Table III
Source text: as §1, §2

Lung-NSC NCI-H460 = assay: human cancer cell growth inhibition, sulforhodamine B assay; type: cell-based; details: Table I, 48 hours; for GI50: Homo sapiens, NCI-H460, read-out: Human cancer cell line inhibition (GI50) Lung-NSC NCI-H460
Method: (§3) Inhibition of human cancer cell growth was assessed using the National Cancer Institute's standard sulforhodamine B assay. After 48 hours, the plates were fixed with trichloracetic acid, stained with sulforhodamine B and read with an automated microplate reader. […] Inhibition of the mouse leukemia P388 cells was assessed in a 10% horse serum/Fisher medium soution for 24 hours, followed by a 48 hour incubation with serial dilutions of the compounds. Cell growth inhibition (ED50) was then calculated using a Z1 Becleman/Coulter particle counter.

Breast MCF-7 = assay: as above; type: cell-based; details: Table I, 48 hours; for GI50: Homo sapiens, MCF7, read-out: Human cancer cell line inhibition (GI50) Breast adn MCF-7
Method: as §3

Colon KM20L2 = assay: as above; type: cell-based; details: Table I, 48 hours; for GI50: Homo sapiens, KM-20L2, read-out: Human cancer cell line inhibition (GI50) Colon KM20L2
Method: as §3

CNS SF268 = assay: as above; type: cell-based; details: Table I, 48 hours; for GI50: Homo sapiens, SF-268, read-out: Human cancer cell line inhibition (GI50) CNS SF268
Method: as §3

Prostate DU-145 = assay: as above; type: cell-based; details: Table I, 48 hours; for GI50: Homo sapiens, DU-145, read-out: Human cancer cell line inhibition (GI50) Prostate DU-145
Method: as §3

Pancreas BXPC-3 = assay: as above; type: cell-based; details: Table I, 48 hours; for GI50: Homo sapiens, BXPC-3, read-out: Human cancer cell line inhibition (GI50) Pancreas-a BXPC-3
Method: as §3

[2] = system: human umbilical vein endothelial cells (HUVEC); assay: Matrigel cord formation assay; type: cell-based; design: key: −: No Junctions; +: Few; ++: ˜50% of Control; +++: Same as Control; details: 24 hours, compared to untreated controls
Method: (§4) In vitro Matrigel antiangiogenesis assays were implemented according to the Developmental Therapeutics Program NCI/NIH protocols known to one of skill in the art. Matrigel, a basement membrane matrix, was obtained from BD Biosciences. Growth inhibition and cord formation assays were Conducted using human umbilical vein endothelial cells obtained from GlycoTeCh. HUVEC cells were grown in EGM-2 medium.
(§5) An aliquot of sixty microliters was placed in each well of an ice-cold 96-well plate. The plates were then left for 15 minutes at room temperature, then incubated for 30 minutes at 37° C. to permit the matrigel to polymerize. Meanwhile, HUVEC cells were harvested and diluted to a concentration of 2×10^5 cells/ml. A solution of 100 μL containing the compounds to be tested was added next. After 24 hours incubation, pictures were taken for each concentration using an inverted Nikon Diaphot microscope and D100 digital camera. Drug effect was assessed, compared to untreated controls, by measuring the length of cords formed and number ofjunctions.

[3] = system: human umbilical vein endothelial cells (HUVEC); assay: HUVEC growth inhibition, sulforhodamine B assay; type: cell-based; details: for Relative % Growth: HUVEC; for Human Umbilical Vein Endothelial Cell (HUVEC) Inhibition Values (GI50): Table V
Method: as §4
The standard sulforhodamine B assay (see Cancer Cell Line Procedures above) was used to evaluate results using HUVEC cells. IC50 or ED50 (drug concentration causing 50% inhibition) was calculated from the plotted data.

[4] = system: human umbilical vein endothelial cells (HUVEC); assay: Matrigel cord formation assay; type: cell-based; design: key to Lengths of Cords: −: No Cords; +: Small; ++: ˜50% of Control; +++: Same as Control; details: 24 hours, compared to untreated controls
Method: as §4, §5

| melting point [°C] | Compound | Range of minimum inhibitory concentration, Enterobacter cloacae (Enterobacter cloacae) | Range of minimum inhibitory concentration, Micrococcus luteus (Micrococcus luteus) | Range of minimum inhibitory concentration, Staphylococcus aureus (Staphylococcus aureus) | Range of minimum inhibitory concentration, Stenotrophomonas maltophilia [1] | Range of minimum inhibitory concentration, Candida albicans (Candida albicans) | Range of minimum inhibitory concentration, Cryptococcus neoformans (Cryptococcus neoformans) | Range of minimum inhibitory concentration, Enterococcus faecalis (Enterococcus faecalis) | Range of minimum inhibitory concentration, Neisseria gonorrhoeae (Neisseria gonorrhoeae) | Range of minimum inhibitory concentration, Escherichia coli (Escherichia coli) | Range of minimum inhibitory concentration, Streptococcus pneumoniae (Streptococcus pneumoniae) | Human cancer cell line inhibition (GI50) Lung-NSC NCI-H460 (Lung-NSC NCI-H460) [µg/mL] | Human cancer cell line inhibition (GI50) Breast adn MCF-7 (Breast MCF-7) [µg/mL] | Human cancer cell line inhibition (GI50) Colon KM20L2 (Colon KM20L2) [µg/mL] | Human cancer cell line inhibition (GI50) CNS SF268 (CNS SF268) [µg/mL] | Human cancer cell line inhibition (GI50) Prostate DU-145 (Prostate DU-145) [µg/mL] | Human cancer cell line inhibition (GI50) Pancreas-a BXPC-3 (Pancreas BXPC-3) [µg/mL] | also measured |
| --- | --- | --- | --- | --- | --- | --- | --- | --- | --- | --- | --- | --- | --- | --- | --- | --- | --- | --- |
|  | 3-Brombo-4,4′,5-trimethoxy-3′-hydroxy-E-stilbene [Compound 13b] | * (no inhibition at 64 μg/ml) | * (no inhibition at 64 μg/ml) | * (no inhibition at 64 μg/ml) | * (no inhibition at 64 μg/ml) | * (no inhibition at 64 μg/ml) | * (no inhibition at 64 μg/ml) | * (no inhibition at 64 μg/ml) | * (no inhibition at 64 μg/ml) | * (no inhibition at 64 μg/ml) | * (no inhibition at 64 μg/ml) | 0.15 | 0.14 | 1.2 | 0.18 | 0.13 | 1.6 |  |
| 138 to 140 | COc1ccc(/C=C/c2cc(Cl)c(OC)c(OC)c2)cc1O [Compound 12b, 3-Chloro-4,4′,5-trimethoxy-3′-hydroxy-E-stilbene] |  |  |  |  |  |  |  |  |  |  |  |  |  |  |  |  | GI50 (Lung-NSC NCI-H460): 0.034 µg/mL (≈ 0.106 µM); GI50 (Breast MCF-7): 0.041 µg/mL (≈ 0.128 µM); GI50 (Colon KM20L2): 1.4 µg/mL (≈ 4.36 µM); GI50 (CNS SF268): 0.048 µg/mL (≈ 0.15 µM); GI50 (Prostate DU-145): 0.038 µg/mL (≈ 0.118 µM); GI50 (Pancreas BXPC-3): 0.59 µg/mL (≈ 1.84 µM) |
| 121 to 122 | COc1ccc(/C=C\c2cc(I)c(OC)c(I)c2)cc1C(C)=O [Compound 22c, 3,5-diiodo-4,4′-dimethoxy-3′-acetyl-z-stilbene] |  |  |  |  |  |  |  |  |  |  |  |  |  |  |  |  |  |
| 103 to 104 | COc1ccc(/C=C\c2cc(I)c(OC)c(OC)c2)cc1C(C)=O |  |  |  |  |  |  |  |  |  |  |  |  |  |  |  |  |  |
|  | 3-Fluoro-4,4′,5-trimethoy-3′-hydroxy-E-stilhene [Compound 11b] | * (no inhibition at 64 μg/ml) | 16 to 32 µg/mL | 32 to 64 µg/mL | * (no inhibition at 64 μg/ml) | * (no inhibition at 64 μg/ml) | 64 µg/mL | * (no inhibition at 64 μg/ml) | 8 to 16 µg/mL | * (no inhibition at 64 μg/ml) | 64 µg/mL | 0.18 | 0.051 | 0.53 | 0.35 | 0.18 | 2.2 |  |
|  | Sodium 3,5-diiodo-4,4′dimethoxy-z-stilbene 3′-O-phosphate [Compound T (Table Ia)] |  |  |  |  |  |  |  |  |  |  |  |  |  |  |  |  | Number of junctions ([2]; 1 μg/ml): −; Relative % Growth ([3]; 0.0001 μg/ml): >100%; Relative % Growth ([3]; 0.01 μg/ml): >100%; Relative % Growth ([3]; 0.1 μg/ml): −2%; Relative % Growth ([3]; 1 μg/ml): −7%; Human Umbilical Vein Endothelial Cell (HUVEC) Inhibition Values (GI50) [3]: 0.051 µg/mL; Lengths of Cords ([4]; 0.1 μg/ml): +; Lengths of Cords ([4]; 1 μg/ml): − |
|  | Sodium 3-iodo-4,4′,5-trimethoxy-z-stilbene 3′-O-phosphate [Compound 20a] | * (no inhibition at 64 μg/ml) | * (no inhibition at 64 μg/ml) | * (no inhibition at 64 μg/ml) | * (no inhibition at 64 μg/ml) | * (no inhibition at 64 μg/ml) | * (no inhibition at 64 μg/ml) | * (no inhibition at 64 μg/ml) | 16 to 32 µg/mL | * (no inhibition at 64 μg/ml) | * (no inhibition at 64 μg/ml) | 0.0031 | 0.012 | 0.37 | 0.0052 | 0.0078 | 0.47 | Number of junctions ([2]; 0.001 μg/ml): +; Number of junctions ([2]; 0.01 μg/ml): −; Number of junctions ([2]; 0.1 μg/ml): −; Relative % Growth ([3]; 0.0001 μg/ml): 104%; Relative % Growth ([3]; 0.001 μg/ml): 5%; Relative % Growth ([3]; 0.01 μg/ml): 14%; Relative % Growth ([3]; 0.1 μg/ml): 7%; Human Umbilical Vein Endothelial Cell (HUVEC) Inhibition Values (GI50) [3]: 0.00035 µg/mL; Lengths of Cords ([4]; 0.001 μg/ml): +; Lengths of Cords ([4]; 0.01 μg/ml): −; Lengths of Cords ([4]; 0.1 μg/ml): − |

| Compound | melting point [°C] | Range of minimum inhibitory concentration, Enterobacter cloacae (Enterobacter cloacae) | Range of minimum inhibitory concentration, Micrococcus luteus (Micrococcus luteus) | Range of minimum inhibitory concentration, Staphylococcus aureus (Staphylococcus aureus) | Range of minimum inhibitory concentration, Stenotrophomonas maltophilia [1] | Range of minimum inhibitory concentration, Candida albicans (Candida albicans) | Range of minimum inhibitory concentration, Cryptococcus neoformans (Cryptococcus neoformans) | Range of minimum inhibitory concentration, Enterococcus faecalis (Enterococcus faecalis) | Range of minimum inhibitory concentration, Neisseria gonorrhoeae (Neisseria gonorrhoeae) | Range of minimum inhibitory concentration, Escherichia coli (Escherichia coli) | Range of minimum inhibitory concentration, Streptococcus pneumoniae (Streptococcus pneumoniae) | Human cancer cell line inhibition (GI50) Lung-NSC NCI-H460 (Lung-NSC NCI-H460) [µg/mL] | Human cancer cell line inhibition (GI50) Breast adn MCF-7 (Breast MCF-7) [µg/mL] | Human cancer cell line inhibition (GI50) Colon KM20L2 (Colon KM20L2) [µg/mL] | Human cancer cell line inhibition (GI50) CNS SF268 (CNS SF268) [µg/mL] | Human cancer cell line inhibition (GI50) Prostate DU-145 (Prostate DU-145) [µg/mL] | Human cancer cell line inhibition (GI50) Pancreas-a BXPC-3 (Pancreas BXPC-3) [µg/mL] | also measured |
| --- | --- | --- | --- | --- | --- | --- | --- | --- | --- | --- | --- | --- | --- | --- | --- | --- | --- | --- |
| COc1ccc(/C=C/c2cc(I)c(OC)c(OC)c2)cc1O [Compound 14b, 3-Iodo-4,4′,5-trimethoxy-3′-hydroxy-E-stilbene] | 111 to 113 | * (no inhibition at 64 μg/ml) | 4 to 8 µg/mL | 8 to 64 µg/mL | * (no inhibition at 64 μg/ml) | * (no inhibition at 64 μg/ml) | 64 µg/mL | * (no inhibition at 64 μg/ml) | 4 to 16 µg/mL | * (no inhibition at 64 μg/ml) | * (no inhibition at 64 μg/ml) |  |  |  |  |  |  | GI50 (Lung-NSC NCI-H460): 0.21 µg/mL (≈ 0.509 µM); GI50 (Breast MCF-7): 0.18 µg/mL (≈ 0.437 µM); GI50 (Colon KM20L2): 1.7 µg/mL (≈ 4.12 µM); GI50 (CNS SF268): 0.55 µg/mL (≈ 1.33 µM); GI50 (Prostate DU-145): 0.27 µg/mL (≈ 0.655 µM); GI50 (Pancreas BXPC-3): 2.7 µg/mL (≈ 6.55 µM) |
